Experimental data as given in patent publication US20030139609A1, “Aziridinyl quinone antitumor agents based on indoles and cyclopent[b]indoles” (priority 2001, published 2003).

Key:
[1] = target: human DT-diaphorase (from the non-small cell lung NCI-H460 cell line) (Homo sapiens, UniProt P15559); experiment: DT-diaphorase substrate kinetics (recombinant enzyme, anaerobic, Lineweaver-Burke); format: biochemical
Source text: Listed in Tables 1-4 are the human DT-diaphorase kinetic parameters for Series 1-9, along with the DNA alkylation percentages. These parameters include the apparent dissociation constant KM, the apparent maximal velocity VMAX, and the substrate specificity, VMAX/KM. The designation “apparent” refers to the present of productive and nonproductive constants in KM and VMAX. {Fersht, A. R., The Hydrogen Bond in Molecular Recognition Trends, Biochem. Sci., 1987, 12, 301-304} These constants cancel in the ratio VMAX/KM, which is the best parameter to compare substrates. Human DT-diaphorase (from the non-small cell lung NCI-H460 cell line) {Beall, H. D., Mulcahy, R. T., Siegel, D., Traver, R D., Gibson, N. W., and Ross, D., Metabolism of Bioreductive Antitumor Compounds by Purified Rat and Human DT-Diaphorase Cancer Res., 1994, 54, 3196-3201 } was used to obtain these kinetic parameters. This enzyme is the same as that present in other human tissues, cancerous or otherwise.
Kinetics Studies using Recombinant DT-diaphorase. Kinetics studies were carried out in 0.05 M pH 7.4 Tris buffer under anaerobic conditions, employing Thunberg cuvettes. […] To calculate Vmax, the value of □□ must be obtained. □□ was calculated from the initial and final absorbances for complete quinone reduction; all values are between 8000 to 9000 M^−1 cm^−1. […]

[2] = tested on: NCI-H460 non-small-lung cancer cell line; experiment: NCI In Vitro Cell Line Screening, NSC H460 cell line; format: cell-based
Source text: Cytotoxic and Cytostatic Screening of Series 1-9.

[3] = tested on: National Cancer Institute 60-cell line; experiment: NCI 60-cell line in vitro screen (average cytotoxicity and cancer specificity)
Experimental: Cytotoxic and Cytostatic Screening of Series 1-9. […] The cytostatic parameters include GI50 and TGI, which are the concentrations of drug required for 50% growth inhibition and total growth inhibition, respectively. The cytotoxic parameter is the LC50, which is the concentration required for 50% cell kill.
4. […] Cancer specificity is measured from the ± value under the “Average Log LC50 60-Cell Line” heading of Table 5. A ± value greater than 2 indicates a greater than 100-fold higher/lower cytotoxicity in some histological cancer types compared to the mean cytotoxicity.
The DT-diaphorase levels in the National Cancer Institute 60-cell line in vitro screen have been determined and correlated with the cytotoxicity of antitumor agents activated by 2-electron reduction. {Fitzsimmons, S. A., Workman, P., Grever, M., Paull, K., Camalier, R., and Lewis, A. D., Reductase Enzyme Expression Across the National Cancer Institute Tumor Cell Line Panel: Correlation with Sensitivity To Mitomycin C and EO9, J. Natl. Cancer Inst., 1996, 88, 259-69}. Sensitive cancers usually include NSC lung and colon cancers (and to a lesser extent CNS, melanoma, and renal cancers) by virtue of their elevated DT-diaphorase levels.

600 bp calf thymus DNA = experiment: DNA reductive alkylation by catalytically reduced aziridinyl quinones; format: biochemical
Experimental: DNA Alkylation Screening of Series 1-9. The extent of DNA reductive alkylation was determined by catalytic reduction of the aziridinyl quinones in the presence of 600 bp calf thymus DNA. Oxidative workup afforded DNA colored blue as a result of the aminoquinone chromophore. […] The anaerobic conditions employed for DNA reductive alkylation assays is not meant to mimic the environment of tumor cells. These conditions do permit an accurate assessment of the structural requirements for DNA alkylation by the hydroquinone species. To be sure, agents incapable of akylating DNA under these ideal conditions will not do so in the typical cellular environment.
Alkylation of DNA by Reduced Indoloquinones. To a mixture of 1-2 mg of sonicated (600 bp) calf thymus DNA in 2.0 mL of 0.05 M of pH 7.4 tris buffer and 2 mg of Pd on carbon was added a five-to-one base pair equivalent amount of the indoloquinone dissolved in 0.5 mL of dimethylsulfoxide. The resulting solution was degassed under argon for 30 min., after which the mixture was purged with H2 for 10 min. The solution was then purged with argon for 10 min. and placed in a 30° C. bath for 24 h. The reaction was opened to the air and the catalyst was removed with a Millex-PF […] syringe filter. The filtrate was adjusted to 0.3 M acetate with a 3 M stock solution of pH 5.1 acetate and then diluted with two volumes of ethanol. The mixture was chilled at −20° C. for 12 h and the DNA pellet collected by centrifuging at 12,000 g for 20 min. The pellet was redissolved in water and then precipitated and centrifuged again. The resulting blue or red pellet was suspended in ethanol, centrifuged, and dried. The dried pellet was weighed and dissolved in 1 mL of double distilled water resulting in a clear colored solution with […]max˜550 nm, □˜750 M^−1 cm^−1. This is the chromophore of the aminoquinone resulting from nucleophile-mediated opening of the aziridine ring. Model 2′-chloroethyl aminoquinones for extinction coefficient determination were prepared by treatment of the indoloquinone with HCl. {Skibo, E. B. and Xing, C., Chemistry and DNA Alkylation Reactions of Aziridinyl Quinones: Development of an Efficient Alkylating Agent of the Phosphate Backbone, Biochemistry, 1998, 37, 15199-15213}.

Chain of human DT-diaphorase (from the non-small cell lung NCI-H460 cell line) (P15559 whole entry): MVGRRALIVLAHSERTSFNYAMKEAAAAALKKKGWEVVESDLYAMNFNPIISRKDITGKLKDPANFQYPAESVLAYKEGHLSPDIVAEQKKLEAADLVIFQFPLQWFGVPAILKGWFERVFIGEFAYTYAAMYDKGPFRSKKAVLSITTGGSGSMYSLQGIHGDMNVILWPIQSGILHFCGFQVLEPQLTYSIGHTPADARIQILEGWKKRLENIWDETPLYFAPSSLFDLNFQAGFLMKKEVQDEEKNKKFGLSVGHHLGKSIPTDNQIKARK

SMILES: CCOC(=O)c1[nH]c2c(c1COC(C)=O)C(=O)C(N1CC1)=CC2=O [Compound 6d, 3-Acetoxymethyl-5-aziridinyl-2-ethoxycarbonylindole-4,7-dione]
- DT-diaphorase specificity [1]: 0.0072 M⁻¹ s⁻¹
- GI50 ([2]; Homo sapiens, NCI-H460, concentration for 50% growth inhibition, read-out: Log GI50 NSC H460 (converted)): 37.2 nM
- CC50 ([2]; Homo sapiens, NCI-H460, read-out: Log LC50 NSC H460, concentration for 50% cell kill (converted)): 603 nM
- Log TGI NSC H460 ([2]; concentration for total growth inhibition): −6.77
- ± value of Average Log LC50 60-Cell Line [3]: ~1
- Average Log LC50 60-Cell Line ([3]; mean over 60 cell lines, ± value measures cancer specificity): −5.62 ± 1.05
- % of DNA bases reductively activated (600 bp calf thymus DNA): 91.2%
- DNA alkylation (in words) (600 bp calf thymus DNA): high DNA alkylation percentages
- DNA alkylation percentage (600 bp calf thymus DNA; catalytic reduction, anaerobic, pH 7.4 tris buffer, 30° C., 24 h, absorbance at 550 nm): 91.2%
